Measured values: the NIST ThermoML archive (doi:10.1016/j.jct.2018.09.009)
Numbers after ± are expanded uncertainties.

Legend:
[1] = xn = mol fraction of the nth substance listed; details: Liquid, isochoric method
[2] = molar heat capacity at constant volume; xn = mol fraction of the nth substance listed; details: Liquid, Vacuum adiabatic calorimetry

C=C(F)C(F)(F)F [2,3,3,3-tetrafluoro-1-propene] + CCC
Details	mass density [kg/m3]	molar heat capacity at constant volume [J/K/mol]
[1], 254.28 K, 1867 kPa, x1 = 0.607	969.9 ± 5.8	–
[1], 255.92 K, 1645 kPa, x1 = 0.825	1109.8 ± 6.7	–
[1], 256.67 K, 3513 kPa, x1 = 0.607	969.4 ± 5.8	–
[1], 258.25 K, 3241 kPa, x1 = 0.825	1109.2 ± 6.7	–
[1], 259.05 K, 5156 kPa, x1 = 0.607	968.9 ± 5.8	–
[1], 260.61 K, 4872 kPa, x1 = 0.825	1108.7 ± 6.7	–
[1], 261.41 K, 6787 kPa, x1 = 0.607	968.5 ± 5.8	–
[1], 262.96 K, 6492 kPa, x1 = 0.825	1108.1 ± 6.7	–
[1], 263.78 K, 8419 kPa, x1 = 0.607	968 ± 5.8	–
[1], 265.27 K, 8092 kPa, x1 = 0.825	1107.6 ± 6.7	–
[1], 266.11 K, 10027 kPa, x1 = 0.607	967.5 ± 5.8	–
[1], 267.59 K, 9690 kPa, x1 = 0.825	1107 ± 6.7	–
[1], 268.42 K, 11618 kPa, x1 = 0.607	967 ± 5.8	–
[1], 269.9 K, 11286 kPa, x1 = 0.825	1106.5 ± 6.7	–
[1], 270.72 K, 13214 kPa, x1 = 0.607	966.5 ± 5.8	–
[1], 272.22 K, 12888 kPa, x1 = 0.825	1105.9 ± 6.7	–
[1], 290.26 K, 1730 kPa, x1 = 0.521	821.2 ± 4.9	–
[1], 292.5 K, 2803 kPa, x1 = 0.521	820.9 ± 4.9	–
[1], 294.78 K, 3896 kPa, x1 = 0.521	820.6 ± 4.9	–
[1], 297.13 K, 5024 kPa, x1 = 0.521	820.3 ± 4.9	–
[1], 299.47 K, 6148 kPa, x1 = 0.521	820 ± 4.9	–
[1], 301.86 K, 7296 kPa, x1 = 0.521	819.7 ± 4.9	–
[1], 304.23 K, 8438 kPa, x1 = 0.521	819.4 ± 4.9	–
[1], 306.62 K, 9582 kPa, x1 = 0.521	819.1 ± 4.9	–
[1], 309.04 K, 10744 kPa, x1 = 0.521	818.8 ± 4.9	–
[1], 311.5 K, 11920 kPa, x1 = 0.521	818.5 ± 4.9	–
[1], 313.73 K, 1699 kPa, x1 = 0.285	626 ± 3.8	–
[1], 313.86 K, 13057 kPa, x1 = 0.521	818.2 ± 4.9	–
[1], 316.16 K, 2581 kPa, x1 = 0.285	625.9 ± 3.8	–
[1], 318.63 K, 3477 kPa, x1 = 0.285	625.7 ± 3.8	–
[1], 321.06 K, 4361 kPa, x1 = 0.285	625.5 ± 3.8	–
[1], 323.51 K, 5252 kPa, x1 = 0.285	625.3 ± 3.8	–
[1], 326.04 K, 6172 kPa, x1 = 0.285	625.1 ± 3.8	–
[1], 328.54 K, 7079 kPa, x1 = 0.285	624.9 ± 3.8	–
[1], 331.04 K, 7988 kPa, x1 = 0.285	624.7 ± 3.8	–
[1], 333.51 K, 8883 kPa, x1 = 0.285	624.5 ± 3.8	–
[1], 336.01 K, 9790 kPa, x1 = 0.285	624.3 ± 3.8	–
[1], 338.48 K, 10686 kPa, x1 = 0.285	624.1 ± 3.8	–
[1], 340.94 K, 11578 kPa, x1 = 0.285	624 ± 3.8	–
[1], 343.4 K, 12468 kPa, x1 = 0.285	623.8 ± 3.8	–
[1], 345.88 K, 13366 kPa, x1 = 0.285	623.6 ± 3.8	–
[1], 348.3 K, 14239 kPa, x1 = 0.285	623.4 ± 3.8	–
[2], 255.48 K, 2690 kPa, x1 = 0.607	–	81.79 ± 1.6
[2], 257.09 K, 2443 kPa, x1 = 0.825	–	89.48 ± 1.7
[2], 257.86 K, 4335 kPa, x1 = 0.607	–	82.48 ± 1.6
[2], 259.43 K, 4057 kPa, x1 = 0.825	–	89.48 ± 1.7
[2], 260.23 K, 5972 kPa, x1 = 0.607	–	82.92 ± 1.6
[2], 261.79 K, 5682 kPa, x1 = 0.825	–	90.4 ± 1.7
[2], 262.6 K, 7603 kPa, x1 = 0.607	–	82.74 ± 1.6
[2], 264.12 K, 7292 kPa, x1 = 0.825	–	90.81 ± 1.7
[2], 264.95 K, 9223 kPa, x1 = 0.607	–	83.87 ± 1.6
[2], 266.43 K, 8891 kPa, x1 = 0.825	–	90.2 ± 1.7
[2], 267.27 K, 10823 kPa, x1 = 0.607	–	83.61 ± 1.6
[2], 268.75 K, 10488 kPa, x1 = 0.825	–	91.52 ± 1.7
[2], 269.57 K, 12416 kPa, x1 = 0.607	–	84.82 ± 1.6
[2], 271.06 K, 12087 kPa, x1 = 0.825	–	91.21 ± 1.7
[2], 275.52 K, 2097 kPa, x1 = 0.825	–	93.05 ± 1.8
[2], 276.02 K, 1993 kPa, x1 = 0.607	–	87.59 ± 1.6
[2], 277.84 K, 3440 kPa, x1 = 0.825	–	93.86 ± 1.8
[2], 278.37 K, 3320 kPa, x1 = 0.607	–	87.07 ± 1.6
[2], 280.2 K, 4817 kPa, x1 = 0.825	–	94.67 ± 1.8
[2], 280.75 K, 4661 kPa, x1 = 0.607	–	88.46 ± 1.6
[2], 282.57 K, 6197 kPa, x1 = 0.825	–	95.49 ± 1.8
[2], 283.13 K, 6012 kPa, x1 = 0.607	–	88.11 ± 1.6
[2], 284.92 K, 7561 kPa, x1 = 0.825	–	95.18 ± 1.8
